In US8604220B2, “Isolation of Simalikalactone E and use thereof as a medicament, in the treatment of malaria” (priority 2009, dated 2013):

Key:
[1] = tested on: liver stages of Plasmodium yoelii; assay: In vitro activity against liver stages of P. yoelii in mouse primary hepatocytes; assay type: cell-based; details: for IC50: Plasmodium yoelii, Hepatocyte, liver stages, 48 hours, SkE mean of three experiments, read-out: IC50 on murine hepatocytes infected with P. yoelii
Protocol: (§1) The in vitro activity of SkE against the pre-erythrocytic stages was tested on different Plasmodium species. […] The in vitro assays were carried out using cultures of human primary hepatocytes (HH) or mouse primary hepatocytes (MH), respectively. The primary cells were isolated by collagenase perfusion of pieces of liver (obtained from humans or from female Swiss mice, respectively), followed by purification of the separated cells on a percoll gradient. The hepatocytes were seeded into 96-well microplates (35 000 MH/well and 82 500 HH/well) and maintained in culture at 37° C. and 5% CO2 in a William medium supplemented with 10% FCS (Hyclone), 100 U/ml of penicillin, […] of streptomycin, 2 mM of glutamine, 5 μg/ml of insulin and 5×10^−7 M of hydrocortisone hemisuccinate. A stock solution of SkE was prepared in DMSO at 200 mg/ml, and then diluted in complete medium described above so as to obtain the desired concentrations. The hepatocytes were infected with P. yoelii sporozoites (30 000) or P. falciparum sporozoites (40 000). The SkE compound was added simultaneously with sporozoites at various concentrations. The culture medium was then replaced 3 h after the inoculation of the sporozoites, and then every day. The cultures were fixed 48 hours after the infection for P. yoelii, and 5 days after infection for P. falciparum. The inhibitory effect of the compound was quantified, after fluorescent immunolabeling of the liver schizonts with a mouse serum directed against PfHSP70, by fluorescence microscopy analysis.

[2] = tested on: liver stages of Plasmodium falciparum; assay: In vitro activity against liver stages of P. falciparum in human primary hepatocytes; assay type: cell-based; details: for therapeutic index TI=TC50/IC50: P. falciparum liver stages, human hepatocytes; for IC50: Plasmodium falciparum, Hepatocyte, 120 h, human primary hepatocytes, 5 days, SkE mean of two experiments
Protocol: as §1

P. vinckei petteri = assay: Antimalarial activity in vivo, mice infected with P. vinckei petteri (Peters test); parameters: species or system Plasmodium vinckei petteri; details: for ED50, dose inhibiting 50% of the growth of P. vinckei petteri: mice, 4 days; for survival of the mice compared with chloroquine: IP route
Protocol: The antimalarial activity of SkE was evaluated on female Swiss mice (22 g±2) infected with P. vinckei petteri. Before infection of the mice having been used for the test, the parasites were thawed, injected and maintained by passaging in two batches of mice. The parasitized blood was taken from the retro-orbital sinus and each mouse of the study was infected with 2×10^7 parasites intraperitoneally. The infected animals were divided up into batches of 5 per cage and were treated intraperitoneally each day for 4 days. The SkE was tested at 4 concentrations prepared in 90% DMSO (intraperitoneal route) or carboxymethylcellulose (oral route) in such a way that each mouse receives 200 μl of preparation. The experiment included control parasitized mice receiving 200 μl of 90% DMSO or CMC alone orally, and 3 batches of 5 mice, each of these batches being treated with solutions of chloroquine at 1, 5 and 10 mg/kg diluted in PBS (IP).
At the end of the treatment (5 d after the infection), a blood smear was performed from a drop of blood originating from the tail of each mouse, fixed with methanol and stained with Giemsa. The slides were examined under a microscope and the parasitemia counted for 10 000 red blood cells.
The survival of the mice was monitored for 21 days.

[3] = tested on: primary rodent hepatocytes; assay: In vitro cytotoxicity on primary rodent hepatocytes, MTT assay; assay type: cell-based, mouse; details: the other two experiments; highest concentration tested 5.54 μM
Protocol: (§2) In parallel, the cytotoxicity of the compound was evaluated on human and rodent hepatocytes treated under the same conditions as in the assays for activity of the test compound, by means of the MTT (tetrazolium) colorimetric assay (Mosmann et al., 1983). After incubation of the primary rodent or human hepatocytes for 2 days or 5 days, respectively, with the various concentrations of the test compound, 100 μl of MTT solution ([…]) were added to each well. The plates were then incubated for 4 hours at 37° C. The formazan crystals were then dissolved in 100 μl of DMSO-ethanol mixture (V/V). The optical density was measured by spectrophotometry at 540 nm. The results are expressed as percentage cell viability relative to the untreated control.

[4] = as above; assay type: cell-based, mouse; details: Swiss, mouse, primary hepatocytes; one of the 3 experiments carried out; read-out: cytotoxicity IC50 on murine hepatocytes
Protocol: as §2

[5] = tested on: P. falciparum (F32 Tanzania, FcB1 Colombia, W2 Indochina strains); assay: Antiplasmodial activity in vitro, tritiated hypoxanthine incorporation; assay type: cell-based; details: Plasmodium falciparum, 48 h, read-out: IC50, inhibits 50% of the growth of P. falciparum in culture
Protocol: The following three strains of Plasmodium falciparum were used: • chloroquine-sensitive F32 Tanzania • chloroquine-resistant FcB1 Colombia • W2 Indochina.
The antimalarial activity of the various products is evaluated by means of the radioactive method using tritiated hypoxanthine, described by Desjardins et al., with the modifications introduced by Benoit et al. (Desjardins R. E. et al., Antimicrob. Agents Chemother, 1979, 16: 710-718; F. Benoit et al. Trans. Roy. Soc. Trop. Med. Hyg. 89: 217-218).
The test is carried out in 96-well culture plates (supplier: TPP, Switzerland) on cultures mainly at the ring stage. The parasites are brought into contact with the products for 48 h at 37° C. and 5% CO2. The growth of the parasite is then estimated by following tritiated hypoxanthine incorporation into the nucleic acids of the parasite. The IC50 values are determined graphically on curves of percentage inhibition of growth as a function of concentration. Thus, the antimalarial activity of SkE was evaluated according to the following protocol. […]
The filter is then placed in a cassette which is placed in the β-counter in order to measure the radioactivity. […]

[6] = Cytotoxicity on THP1 cells; assay type: cell-based; details: human
Vero cells = assay: Cytotoxicity on Vero cells, tritiated hypoxanthine incorporation; assay type: cell-based, monkey; details: for toxicity compared with Simalikalactone D: mammalian cell lines (Vero cells)
Protocol: (§3) This evaluation is carried out on two cell types, the MCF-7 line, which is a mammary tumor cell line, and Vero cells (monkey kidney cells).
(§4) VERO cells are monkey kidney epithelial cells. They are cultured in the same way as the MCF-7, but in EMEM medium supplemented with 10% FCS, nonessential amino acids, sodium pyruvate, HEPES and glutamine.
(§5) The evaluation of cytotoxicity follows the same method as the antimalarial activity test, but with P. falciparum being replaced with the MCF-7 or VERO cells.
(§6) However, there are a few minor modifications, owing to the different mode of culture. This is because the cells used for the cytotoxicity tests are adherent cells and their growth is slower. Consequently, they are seeded in 96-well plates 24 hours before they are brought into contact with the test products. After 24 h, the cells adhere to the bottom of the well, the medium is changed, and then the test molecules are added, the dilution thereof being carried out in complete medium. The medium used depends on the cells used (DMEM or EMEM).
(§7) In the same way as for the antimalarial activity test, tritiated hypoxanthine is added 24 hours after bringing into contact with the products, and the plate is placed in the freezer 48 hours later. Finally, the radioactivity is measured as for the antimalarial activity test. The evaluation of the IC50 values is carried out graphically as for that of P. falciparum.

[7] = as above; assay type: cell-based, monkey; details: monkey, Vero cells (monkey kidney epithelial cells)
Protocol: as §3, §4, §5, §6, §7

[8] = Vero cells versus P. falciparum

SMILES	IC50 [1] [nM]	therapeutic index TI=TC50/IC50 [2]	IC50 [2] [nM]	ED50, dose inhibiting 50% of the growth of P. vinckei petteri (P. vinckei petteri; intraperitoneally) [mg/kg/day]	cytotoxicity on murine hepatocytes at highest concentration tested [3]	IC50 at 2 days [4] [nM]	IC50 [5] [nM]	activity relative to primaquine on P. yoelii liver stages ([1]; fold more active than primaquine, same conditions)	IC50 [6] [nM]	IC50 (Vero cells; Primates, Vero cells, read-out: inhibits 50% of the growth of Vero mammalian cells) [nM]	selectivity index (Vero cells; [8])	selectivity index with respect to P. falciparum compared with SkD (Vero cells; [8])	toxicity compared with Simalikalactone D (Vero cells)	toxicity compared with Simalikalactone D (Vero cells; listed as Simalikalactone E)	IC50 at 72 h [7] [nM]	survival of the mice compared with chloroquine (P. vinckei petteri; all doses, p<0.05)	survival of the mice compared with chloroquine (P. vinckei petteri; dose of 1 mg/kg/d)	mean survival time of the mice (P. vinckei petteri; ip at 1 mg/kg/day, monitored for 3 weeks, one experiment)	ED50, dose inhibiting 50% of the growth of P. vinckei petteri (P. vinckei petteri; orally) [mg/kg/day]
COc1cc(NC(C)CCCN)c2ncccc2c1 (centres unmarked) [primaquine, reference compound]	640	81	800																
CCN(CC)CCCC(C)Nc1ccnc2cc(Cl)ccc12 (centres unmarked) [chloroquine, reference compound]				3															
CCC(C)C(=O)O[C@@H]1[C@H]2C(C)=CC(=O)[C@@H](O)[C@]2(C)[C@H]2[C@@H](O)[C@H](O)[C@@]3(C)OC[C@@]24[C@@H]1OC(=O)[C@H](OC(=O)C(C)CC)[C@@H]34 (some centres unmarked) [SkE, Simalikalactone E]	186 ± 16	75	1200 ± 190	0.5	no toxicity was observed	1120	24 to 68	at least 3 times	33	6570	greater than 100	twice that of SkD	less than that of SkD	less toxicity than Simalikalactone D	6000	always better than that of the mice treated with CQ at the doses of 1	equivalent to what is obtained for CQ at 10 mg/kg/d	greater than 18.6 days	1
